In patent US20060110401A1, “Mixture of peptides from c and ns3 proteins of the hepatitis c virus and applications thereof” (priority 2002, published 2006):
Like-named read-outs stand apart in the source and are kept apart here. Marks after values point to notes of the source that are not given here. Residues, ends and D or L forms follow the SMILES beside them.

Legend:
[1] = system: DR1; experiment: DR1
[2] = system: DRB3; experiment: DRB3
[3] = system: DR15; experiment: DR15
[4] = molecular target: T1, HLA-DR1 (DRB1*0101) (Homo sapiens, UniProt P01903+P01911, A100R/D57E/F55L/F60I/F76Y/I96L/L162R/M171V/P40L/Q125E/R42F/V115G/Y59C); experiment: biochemical; assay type: binding; conditions: for IC50: DRB1*0101
T1 construct: endogenous in cells; host or cells: homozygous EBV-transformed human B lymphocyte lines; immunopurified with antibody L243

[5] = system: DP402; experiment: DP402
[6] = molecular target: T2, HLA-DRB4 (DRB4*0101) (Homo sapiens, UniProt P01903+P13762, G164S); experiment: biochemical; assay type: binding
T2 construct: endogenous in cells; host or cells: homozygous EBV-transformed human B lymphocyte lines; immunopurified with antibody L243

[7] = molecular target: T3, HLA-DRB5 (DRB5*0101) (Homo sapiens, UniProt P01903+Q30154); experiment: biochemical; assay type: binding; conditions: read-out: binds with good affinity to DRB5
T3 construct: endogenous in cells; host or cells: homozygous EBV-transformed human B lymphocyte lines; immunopurified with antibody L243

[8] = molecular target: HLA-DR11 (DRB1*1101) (Homo sapiens, UniProt P01903+P01911, A100R/A169T/A87E/I96F/K41T/L162R/M171V/P40S/Q125H/Q178H/Q39Y/Q99D/R42S/S66Y/T262R/V115G/W38E); experiment: biochemical; assay type: binding; conditions: read-out: binds with good affinity to DR11
HLA-DR11 (DRB1*1101), sequence (P01903 26-254 limits assumed, other chains not shown): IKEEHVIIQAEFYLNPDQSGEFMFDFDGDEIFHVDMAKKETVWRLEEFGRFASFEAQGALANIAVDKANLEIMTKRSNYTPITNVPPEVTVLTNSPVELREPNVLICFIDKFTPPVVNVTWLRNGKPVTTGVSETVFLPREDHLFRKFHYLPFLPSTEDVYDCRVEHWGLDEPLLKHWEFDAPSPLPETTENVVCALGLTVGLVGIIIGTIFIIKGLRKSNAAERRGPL

[9] = system: DRB5; experiment: DRB5
[10] = molecular target: HLA-DR7 (DRB1*0701) (Homo sapiens, UniProt P01903+P01911, A100R/A102G/A103Q/D57E/D86V/E43K/F76Y/K127E/L162R/M171V/P40G/Q125H/Q99D/R33Q/R42Y/R54Q/S133A/S66F/T210M/V115G/Y107V/Y59L/Y89S); experiment: biochemical; assay type: binding; conditions: read-out: binds with good affinity to DR7
[11] = molecular target: T4, HLA-DR15 (DRB1*1501) (Homo sapiens, UniProt P01903+P01911); experiment: biochemical; assay type: binding; conditions: DRB1*1501; read-out: binds with good affinity to DR15
T4 construct: endogenous in cells; host or cells: homozygous EBV-transformed human B lymphocyte lines; immunopurified with antibody L243

[12] = system: T lymphocytes derived from PBMCs from patients chronically infected with HCV; assay type: cell-based, human
[13] = system: DRB4; experiment: DRB4
Description: Table printed on a drawing sheet, Figure 2
Where the first naming reader finds the target: head: DRB4

[14] = system: DP401; experiment: DP401
[15] = system: DR4; experiment: DR4
[16] = competition with biotinylated tracer HA 306-318, read-out: IC50, binding to HLA-DR1
[17] = read-out: binds with good affinity to DR1
[18] = patient 067, supernatant 48 h, —: not detected
[19] = patient 078, supernatant 48 h, —: not detected
[20] = patient 093, supernatant 48 h, —: not detected
[21] = patient 630, supernatant 48 h, —: not detected
[22] = patient 659, supernatant 48 h, —: not detected
[23] = patient 815, supernatant 48 h, —: not detected
[24] = patient 862, supernatant 48 h, —: not detected

CC[C@H](C)[C@H](NC(=O)[C@@H](NC(=O)[C@@H]1CCCN1C(=O)CNC(=O)[C@@H](N)CCCCN)C(C)C)C(=O)N[C@@H](CCC(N)=O)C(=O)N[C@@H](CCSC)C(=O)N[C@@H](Cc1ccc(O)cc1)C(=O)N[C@H](C(=O)N[C@@H](CC(N)=O)C(=O)N[C@H](C(=O)N[C@@H](CC(=O)O)C(=O)N[C@@H](CCC(N)=O)C(=O)N[C@@H](CC(=O)O)C(=O)N[C@@H](CC(C)C)C(=O)N[C@H](C(=O)NCC(=O)N[C@@H](Cc1c[nH]c2ccccc12)C(=O)N1CCC[C@H]1C(=O)N[C@@H](C)C(=O)N1CCC[C@H]1C(=O)N[C@@H](CCC(N)=O)C(=O)NCC(=O)N[C@@H](CO)C(=O)N[C@@H](CCCNC(=N)N)C(=O)N[C@@H](CO)C(=O)O)C(C)C)C(C)C)[C@@H](C)O [12N 1094-1119] (H-KGPVIQMYTNVDQDLVGWPAPQGSRS-OH; N-terminus and C-terminus assumed)
IC50 [1]: > 10000 nM
IC50 [2]: > 10000 nM
IC50 [3]: 48 nM
IC50 [4, 16]: > 10000 nM
affinity for HLA-DR1 (in words) ([4]; legend of FIG. 4): low affinity
IC50 [5]: 3000 nM

CC[C@H](C)[C@H](NC(=O)[C@H](Cc1c[nH]cn1)NC(=O)[C@@H](NC(=O)[C@H](CC(C)C)NC(=O)CNC(=O)[C@@H](N)[C@@H](C)O)[C@@H](C)O)C(=O)N[C@@H](CC(=O)O)C(=O)N[C@@H](C)C(=O)N[C@@H](Cc1c[nH]cn1)C(=O)N[C@@H](Cc1ccccc1)C(=O)N[C@@H](CC(C)C)C(=O)N[C@@H](CO)C(=O)N[C@@H](CCC(N)=O)C(=O)N[C@H](C(=O)N[C@@H](CCCCN)C(=O)O)[C@@H](C)O [29N 1563-1577]
IC50 ([6]; tracer E2/E168, read-out: IC50, binding to HLA-DRB4): 40000 nM
IC50 [4, 16]: 8 nM

CC[C@H](C)[C@H](NC(=O)[C@H](Cc1ccc(O)cc1)NC(=O)CNC(=O)[C@H](CCSC)NC(=O)[C@H](CC(C)C)NC(=O)[C@H](CC(=O)O)NC(=O)[C@H](C)NC(=O)[C@H](Cc1ccccc1)NC(=O)CNC(=O)[C@H](C)NC(=O)[C@@H](N)[C@@H](C)O)C(=O)N1CCC[C@H]1C(=O)N[C@@H](CC(C)C)C(=O)N[C@H](C(=O)NCC(=O)N[C@@H](C)C(=O)N1CCC[C@H]1C(=O)N[C@@H](CC(C)C)C(=O)NCC(=O)NCC(=O)N[C@@H](C)C(=O)N[C@@H](C)C(=O)N[C@@H](CCCNC(=N)N)C(=O)O)C(C)C [5C 127-149] (H-TAGFADLMGYIPLVGAPLGGAAR-OH; N-terminus and C-terminus assumed)
IC50 [7]: < 1000 nM
IC50 [1]: 2 nM
IC50 [2]: > 100000 nM
IC50 [8]: < 1000 nM
IC50 [9]: 3 nM
IC50 [4, 17]: < 1000 nM
IC50 [10]: < 1000 nM
IC50 [11]: < 1000 nM

phytohemagglutinin [PHA]
IFNγ [12, 18]: 2447 pg/mL
IL2 [12, 18]: 1337 pg/mL
IL4 [12, 18]: 632 pg/mL
IL10 [12, 18]: 665 pg/mL
IFNγ [12, 19]: 2249 pg/mL
IL2 [12, 19]: 207 pg/mL
IL4 [12, 19]: 55 pg/mL
IL10 [12, 19]: 207 pg/mL
IL2 ([12]; patient 093, assay at 24 h instead of 48 h): 1402* pg/ml
IFNγ [12, 20]: 8542 pg/mL
IL4 [12, 20]: 127 pg/mL
IL10 [12, 20]: 8551 pg/mL
IL2 ([12]; patient 342, supernatant 48 h, —: not detected): 125 pg/mL
IFNγ [12, 21]: 474 pg/mL
IL2 [12, 21]: 18874 pg/mL
IL4 [12, 21]: 251 pg/mL
IL10 [12, 21]: 242 pg/mL
IFNγ [12, 22]: — 187 pg/ml
IL2 [12, 22]: 153 — pg/ml
IL4 [12, 22]: 453 pg/mL
IL10 [12, 22]: 182 pg/mL
IFNγ [12, 23]: 1979 pg/mL
IL2 [12, 23]: 1002 pg/mL
IL4 [12, 23]: 5638 pg/mL
IL10 [12, 23]: 497 pg/mL
IFNγ [12, 24]: 9902 pg/mL
IL2 [12, 24]: 60 pg/mL
IL4 [12, 24]: 9 pg/mL

CC[C@H](C)[C@H](NC(=O)[C@@H](NC(=O)[C@H](CCCNC(=N)N)NC(=O)[C@@H](NC(=O)CNC(=O)[C@H](C)NC(=O)CNC(=O)[C@H](Cc1c[nH]cn1)NC(=O)[C@H](Cc1ccc(O)cc1)NC(=O)[C@@H](NC(=O)[C@@H](NC(=O)[C@H](Cc1c[nH]c2ccccc12)NC(=O)[C@H](C)NC(=O)[C@@H](NC(=O)CN)C(C)C)[C@@H](C)O)C(C)C)[C@@H](C)O)[C@@H](C)O)C(=O)N[C@@H](C)C(=O)N[C@@H](CO)C(=O)N1CCC[C@H]1C(=O)O [11N 1076-1093] (H-GVAWTVYHGAGTRTIASP-OH; N-terminus and C-terminus assumed)
IC50 [13]: 60000 nM
IC50 [7]: < 1000 nM
IC50 [2]: 6000 nM
IC50 [8]: < 1000 nM
IC50 [9]: 100 nM
IC50 [4, 17]: < 1000 nM
IC50 [10]: < 1000 nM
IC50 [11]: < 1000 nM

CC[C@H](C)[C@H](NC(=O)CNC(=O)[C@H](CC(C)C)NC(=O)[C@H](C)NC(=O)[C@@H](NC(=O)[C@H](CC(C)C)NC(=O)[C@H](CCCCN)NC(=O)[C@H](C)NC(=O)[C@H](C)N)C(C)C)C(=O)N[C@@H](CC(N)=O)C(=O)N[C@@H](C)C(=O)N[C@H](C(=O)N[C@@H](C)C(=O)N[C@@H](Cc1ccc(O)cc1)C(=O)N[C@@H](Cc1ccc(O)cc1)C(=O)N[C@@H](CCCNC(=N)N)C(=O)NCC(=O)N[C@@H](CC(C)C)C(=O)N[C@@H](CC(=O)O)C(=O)N[C@H](C(=O)N[C@@H](CO)C(=O)N[C@H](C(=O)N[C@H](C(=O)N1CCC[C@H]1C(=O)N[C@H](C(=O)N[C@@H](CO)C(=O)NCC(=O)N[C@@H](CC(=O)O)C(=O)N[C@H](C(=O)O)C(C)C)[C@@H](C)O)[C@@H](C)CC)C(C)C)C(C)C)C(C)C [24N 1404-1432]
IC50 [1]: 50 nM
IC50 [14]: 32700 nM
IC50 [5]: 7040 nM

CC[C@H](C)[C@H](NC(=O)[C@@H]1CCCN1C(=O)[C@H](CCCNC(=N)N)NC(=O)[C@@H]1CCCN1C(=O)[C@H](CO)NC(=O)[C@H](CC(C)C)NC(=O)[C@H](CC(C)C)NC(=O)[C@H](CO)NC(=O)CNC(=O)[C@@H](N)CCCNC(=N)N)C(=O)N[C@@H](CO)C(=O)N[C@@H](Cc1ccc(O)cc1)C(=O)N[C@@H](CC(C)C)C(=O)N[C@@H](CCCCN)C(=O)NCC(=O)N[C@@H](CO)C(=O)N[C@@H](CO)C(=O)NCC(=O)NCC(=O)N1CCC[C@H]1C(=O)N[C@@H](CC(C)C)C(=O)N[C@@H](CC(C)C)C(=O)N[C@@H](C)C(=O)N1CCC[C@H]1C(=O)O [14N 1149-1172] (H-RGSLLSPRPISYLKGSSGGPLLAP-OH; N-terminus and C-terminus assumed)
IC50 [13]: 100 nM
IC50 [7]: < 1000 nM
IC50 [1]: 8 nM
IC50 ([6]; read-out: binds with good affinity to DRB4): < 1000 nM
IC50 [4, 17]: < 1000 nM
IC50 [10]: < 1000 nM
IC50 [11]: < 1000 nM
IC50 [15]: 9000 nM
IC50 [5]: > 100000 nM

CC[C@H](C)[C@H](NC(=O)[C@H](Cc1ccccc1)NC(=O)[C@H](CC(=O)O)NC(=O)[C@@H](NC(=O)[C@H](C)NC(=O)[C@H](CCCCN)NC(=O)[C@H](C)N)C(C)C)C(=O)N1CCC[C@H]1C(=O)N[C@H](C(=O)N[C@@H](CCC(=O)O)C(=O)N[C@@H](CC(N)=O)C(=O)N[C@@H](CC(C)C)C(=O)N[C@@H](CCC(=O)O)C(=O)N[C@H](C(=O)N[C@H](C(=O)N[C@@H](CCSC)C(=O)N[C@@H](CCCNC(=N)N)C(=O)N[C@@H](CO)C(=O)N1CCC[C@H]1C(=O)N[C@H](C(=O)N[C@@H](Cc1ccccc1)C(=O)N[C@H](C(=O)N[C@@H](CC(=O)O)C(=O)O)[C@@H](C)O)C(C)C)[C@@H](C)O)[C@@H](C)O)C(C)C [16N 1190-1212]
IC50 [1]: 600 nM
IC50 [3]: 700 nM
IC50 [14]: 4110 nM
IL2 [12, 18]: — 85 pg/ml
IL2 [12, 19]: — 17 pg/ml
IL2 [12, 20]: 5 pg/mL
IL2 [12, 22]: 18 pg/mL
IL2 [12, 23]: 72 pg/mL
IL10 [12, 23]: 123 pg/mL
IC50 [5]: 1440 nM

tetanus toxin [TT]
IL4 [12]: 24 pg/mL
